Assay results taken from patent US7169567B1, “Screening assay utilizing the PTH receptor” (The General Hospital Corporation, priority 1998, dated 2007).

How the values were obtained:
[1] = biological target: T1, intact rat PTH-1 receptor (rWT-HA) (Rattus norvegicus, UniProt P25961); test: cAMP inhibition assay in COS-7 cells expressing rWT-HA; assay type: cell-based; details: antagonist 10 mM
T1 construct: expressed in transfected cells; host or cells: COS-7, transient (DEAE-dextran), pCDNA-1 based plasmid
T1 sequence (P25961 23-591 E93Y/N94P/K95Y/T99D/G100Y/S101A limits assumed): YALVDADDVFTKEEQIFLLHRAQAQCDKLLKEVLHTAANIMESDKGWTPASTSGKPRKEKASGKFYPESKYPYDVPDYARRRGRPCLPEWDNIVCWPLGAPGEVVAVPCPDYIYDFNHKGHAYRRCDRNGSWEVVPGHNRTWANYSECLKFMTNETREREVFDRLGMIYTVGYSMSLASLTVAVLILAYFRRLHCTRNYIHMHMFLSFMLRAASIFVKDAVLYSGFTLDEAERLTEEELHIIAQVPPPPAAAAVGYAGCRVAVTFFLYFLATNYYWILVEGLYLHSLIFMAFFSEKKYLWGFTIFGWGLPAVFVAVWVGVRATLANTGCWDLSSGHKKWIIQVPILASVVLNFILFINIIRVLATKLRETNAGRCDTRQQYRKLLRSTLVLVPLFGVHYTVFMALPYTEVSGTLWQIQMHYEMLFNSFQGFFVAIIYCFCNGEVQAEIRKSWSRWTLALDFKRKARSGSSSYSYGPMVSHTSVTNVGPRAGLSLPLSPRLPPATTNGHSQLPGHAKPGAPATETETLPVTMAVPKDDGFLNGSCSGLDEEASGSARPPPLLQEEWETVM
Description: (§1) FIG. 7. Antagonist Properties of PTHrP(7–34) with PTH(1–14). COS-7 cells transfected with rWT-HA (A) or rΔNt (B) were treated with the antagonist [Leu11,D-Trp12]hPTHrP(7–34)NH2 (or buffer alone), for 5 min at 22EC, followed by 10 ml of either rPTH(1–34) or rPTH(1–14) agonist peptide. Incubations were continued for 30 min at 21° C. and the resulting cAMP levels were measured by RIA, as described in Experimental Procedures. The final concentration of antagonist peptide present during the incubation was 10 mM. Shown are data from a single experiment performed in triplicate. A repeat of the same experiment yielded equivalent results.
For cAMP inhibition assays, transfected COS-7 cells were rinsed once with 500 ml of binding buffer, and 200 ml of IBMX buffer and 100 ml of binding buffer or binding buffer containing the antagonist [Leu11,D-Trp12]hPTHrP(7–34) NH2 (10 mM) were added. After a 5 minute incubation at room temperature, 10 ml of binding buffer containing PTH(1–14) or PTH(1–34) (agonist peptide) was added, and the incubation was continued for an additional 30 minutes. The cells were then lysed and intracellular cAMP levels were measured as described above. […]

[2] = biological target: T2, truncated rat PTH-1 receptor (rΔNt) (Rattus norvegicus, UniProt P25961, E586G); test: cAMP inhibition assay in COS-7 cells expressing rΔNt; assay type: cell-based
T2 construct: contains an open reading frame encoding a protein of about 435 amino acid residues; expressed in transfected cells; host or cells: COS-7, transient (DEAE-dextran), pCDNA-1 based plasmid
T2 sequence (P25961 with tags, fused parts or gaps E586G): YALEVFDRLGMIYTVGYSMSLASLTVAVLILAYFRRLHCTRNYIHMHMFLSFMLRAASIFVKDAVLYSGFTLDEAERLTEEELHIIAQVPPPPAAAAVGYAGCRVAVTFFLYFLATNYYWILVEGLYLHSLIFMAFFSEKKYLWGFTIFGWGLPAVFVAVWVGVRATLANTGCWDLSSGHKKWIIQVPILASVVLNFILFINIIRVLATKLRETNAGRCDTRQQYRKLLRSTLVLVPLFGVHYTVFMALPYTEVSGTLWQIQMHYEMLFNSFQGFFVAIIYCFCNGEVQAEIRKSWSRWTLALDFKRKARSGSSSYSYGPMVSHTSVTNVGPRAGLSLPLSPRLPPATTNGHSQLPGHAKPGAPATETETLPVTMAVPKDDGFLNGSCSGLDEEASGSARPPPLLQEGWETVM
Description: as §1
For cAMP inhibition assays, transfected COS-7 cells were rinsed once with 500 ml of binding buffer, and 200 ml of IBMX buffer and 100 ml of binding buffer or binding buffer containing the antagonist [Leu11,D-Trp12]hPTHrP(7–34) NH2 (10 mM) were added. After a 5 minute incubation at room temperature, 10 ml of binding buffer containing PTH(1–14) or PTH(1–34) (agonist peptide) was added, and the incubation was continued for an additional 30 minutes. The cells were then lysed and intracellular cAMP levels were measured as described above.
In order to determine whether [Leu11,D-Trp12]hPTHrP(7–34)NH2, a potent competitive antagonist of PTH(1–34) action (Nutt, R. F., et al., Endocrinology 127:491–493 (1990)), could block the ability of PTH(1–14) to stimulate cAMP formation in COS-7 cells expressing either rWT-HA or rΔNt (FIG. 6). With rWT-HA the inhibitor peptide reduced the efficacy of both PTH(1–14) and PTH(1–34) by as much as 70% as compared to the responses elicited by these agonists in the absence of inhibitor (FIG. 6A).

[3] = cells expressing rΔNt, antagonist 10 mM

Substance: [Leu^11,D-Trp^12]hPTHrP(7–34)NH2 [[Leu11,D-Trp12]hPTHrP(7–34)NH2]
- reduction of efficacy of PTH(1–14) (cAMP) compared to response in absence of inhibitor ([1]; agonist PTH(1–14)): ≤ 70%
- reduction of efficacy of PTH(1–34) (cAMP) compared to response in absence of inhibitor ([1]; agonist PTH(1–34)): ≤ 70%
- effect on the ability of PTH(1–14) to stimulate cAMP production [2, 3]: little or no effect
- effect on the ability of PTH(1–34) to stimulate cAMP production [2, 3]: little or no effect
- function as an antagonist with rΔNt ([2]; rΔNt): inability
